The values below come from the METLIN SMRT retention time set (Domingo-Almenara et al. 2019).

This data set is described as follows: gradient 5% acetonitrile 3 min, to 50% in 2 min, to 85% in 15 min, held 3 min, 100 µL/min. The note with it: column: Zorbax Extend-C18 2.1 x 50 mm; eluents: water / acetonitrile, 0.1% formic acid. The method in brief:
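Mixtures of ~100 pure standards were chromatographed on a Zorbax Extend-C18 column (2.1 × 50 mm, 1.8 μm) at 100 μL/min using water and acetonitrile, each with 0.1% formic acid. Detection used a quadrupole time-of-flight mass spectrometer in positive and negative ionization mode, and data collection spanned 3 months. Retention time was obtained from adduct peaks picked computationally and each checked manually.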
The compound `O=C(NCCc1ccc(F)cc1)C(=O)Nc1ccc(Cl)cn1` showed an RP-LC retention time of 918 s.

With `COc1cccc(-c2ccc(=O)n(Cc3nc(-c4ccc(F)cc4)no3)n2)c1`, the RP-LC retention time amounted to 984 s.

Take `CCOC(=O)c1c(C)[nH]c(C(=O)N2CCC(CC(=O)N3CCCC3)CC2)c1C`: the RP-LC retention time amounted to 694 s.

`CCOC(=O)c1c(S(=O)(=O)N2CCC(C(=O)Nc3ccc(F)c(Cl)c3)CC2)c(C)n(C)c1C` yielded an RP-LC retention time of 935 s.

With `O=C(Nc1ccc(Cl)c(N2CCCS2(=O)=O)c1)c1ccccc1C(F)(F)F`, the RP-LC retention time worked out at 791 s.

For `CN(C)c1ccc(CNC(=O)C2CCN(c3cc(N4CCSCC4)ncn3)CC2)cc1`, the RP-LC retention time amounted to 579 s.

`CCOC(=O)c1sc(NC(=O)c2ccc([N+](=O)[O-])cc2)nc1-c1ccccc1` registered an RP-LC retention time of 1140 s.

As to `O=C(c1cccs1)N1CC(Oc2cccc(-c3nc(-c4ccccc4)no3)c2)C1`, the RP-LC retention time was 1180 s.

The compound `O=C(c1cccc(F)c1)N1CCC(n2nc(-c3ccsc3)ccc2=O)CC1` gave an RP-LC retention time of 807 s.

`O=C(Nc1ccccc1Cl)c1cnc(-c2ccc(F)cc2)nc1-c1ccncc1`: the RP-LC retention time was 1000 s.

Consider `CCCCc1ccc(NC(=O)N2CCC3(C2)c2nc[nH]c2CCN3C)cc1` (stereo not drawn), for which the RP-LC retention time is 565 s.

`Cc1ccc(Cl)c(NC(=O)c2[nH]c3cc(C)sc3c2CN2CCOCC2)c1` gave an RP-LC retention time of 724 s.

`O=C(NCc1nc(-c2ccc3oc(-c4ccccc4)nc3c2)no1)c1ccccc1`: the RP-LC retention time turned out to be 1010 s.

In the case of `Cc1oc(-c2ccc(C(=O)NCCN(C)C)cc2)nc1CN1CCc2ccccc21`, the RP-LC retention time worked out at 694 s.

Compound `Cc1cccc(CNC(=O)C2CCN(S(=O)(=O)c3cc(C(=O)N4CCOCC4)cs3)CC2)c1` showed an RP-LC retention time of 763 s.

In the case of `Cc1sc(NC(=O)CCC2CCCCC2)nc1-c1ccc2c(c1)NC(=O)C(C)O2` (stereo not drawn), the RP-LC retention time was 679 s.

In the case of `O=S(=O)(NCCc1noc(-c2ccccc2)n1)c1ccc2c(c1)OCCO2`, the RP-LC retention time was determined as 883 s.

In turn, `CNC(=O)[C@@H]1CN(S(=O)(=O)c2ccc(Cl)s2)C[C@H]1c1n[nH]c(C)n1` returned an RP-LC retention time of 656 s.

Consider `O=S(=O)(NCC(c1ccco1)N1CCN(c2ccccc2F)CC1)c1cccs1` (stereo not drawn), for which the RP-LC retention time came out at 672 s.

Turning to `Cc1cc(OC(C)C(=O)N[C@H](C(=O)O)c2ccccc2)c2c3c(c(=O)oc2c1)CCC3` (stereo partly drawn), the RP-LC retention time turned out to be 843 s.

`COc1ccc(Cl)cc1NC(=O)c1cc(C)n2nc(C)cc2n1`: the RP-LC retention time came out at 1160 s.

`Cc1noc(C)c1Cc1c(C(=O)N2CCC3(CCC3O)CC2)noc1C` (stereo not drawn) returned an RP-LC retention time of 680 s.

In turn, `COc1ccc(CC(=O)Nc2cc(-c3cccnc3)no2)cc1` yielded an RP-LC retention time of 708 s.

Regarding `O=C(NCc1n[nH]c(=O)c2ccccc12)C(=O)N1CCCCC1`, the RP-LC retention time stood at 603 s.

Regarding `CCOc1cccc(CN2C(=O)C3(CCOCC3)CC2c2nnnn2C(C)(C)C)c1` (stereo not drawn), the RP-LC retention time worked out at 820 s.

Take `O=c1oc2c(O)c(O)ccc2c2c1CCC2`: the RP-LC retention time worked out at 655 s.

In turn, `CNC(=O)Nc1cccc(-c2ccc(OC)nn2)c1` displayed an RP-LC retention time of 631 s.

With `O=S(=O)(c1cccnc1)N1CC(n2cc(COc3ccc(F)cc3)nn2)C1`, the RP-LC retention time stood at 798 s.

`Cc1ccc(Cl)c(NS(=O)(=O)c2cc(-c3[nH]ncc3C(=O)N3CCCC3)oc2C)c1`: the RP-LC retention time amounted to 739 s.

`CCOCCCNC(=O)Cn1c(=O)c2cccn2c2ccccc21` returned an RP-LC retention time of 689 s.

`Cc1cc(C)c2c(-n3cccc3)nn(CC(=O)NC(C)CCc3ccccc3)c2n1` (stereo not drawn) displayed an RP-LC retention time of 1080 s.

`CC1CCN(C(=O)C2CCN(c3cncnc3N3CCN(C)CC3)CC2)CC1` showed an RP-LC retention time of 558 s.

Take `O=C1COc2ccc(S(=O)(=O)N3CCC(C(=O)Nc4ccccc4)CC3)cc2N1`: the RP-LC retention time is 759 s.

As to `CCCC(NC(=O)c1cc(C)cc(C)c1)C(=O)Nc1nc2ccccc2[nH]1` (stereo not drawn), the RP-LC retention time was 751 s.

As for `Fc1cccc(-c2noc(CSc3nccn3-c3ccccc3)n2)c1`, the RP-LC retention time was 916 s.

Compound `Cc1ccc(NC(=O)C2CCN(S(C)(=O)=O)c3cc(Cl)ccc3O2)c(C)c1` (stereo not drawn) gave an RP-LC retention time of 992 s.

`Cc1cccc(NS(=O)(=O)c2cc3c(=O)n(C)ncn3c2)c1`: the RP-LC retention time was 797 s.

Compound `Cc1cccc(C)c1NC(=O)CSC1=Nc2ccccc2N=C(c2ccccc2)C1` showed an RP-LC retention time of 1100 s.

For `Cc1ccc(F)c(NC(=O)Nc2ccc(-c3cccc4[nH]nc(N)c34)cc2)c1`, the RP-LC retention time was determined as 845 s.

Compound `CC1CN(S(=O)(=O)c2cccc(-c3cn4cc(Cl)ccc4n3)c2)CC(C)O1` (stereo not drawn) registered an RP-LC retention time of 873 s.

Turning to `COc1ccc(CN(C(=O)COc2ccc(Cl)cc2C)C2CCS(=O)(=O)C2)cc1OC` (stereo not drawn), the RP-LC retention time is 938 s.

Consider `O=C(NCc1ccc(F)cc1)C1CCN(C(=O)C2Sc3ccccc3NC2=O)CC1` (stereo not drawn), for which the RP-LC retention time is 804 s.

`O=C(Nc1ccc(OCc2nnc(-c3ccccc3)o2)cc1)c1cnccn1` gave an RP-LC retention time of 832 s.

Regarding `Cc1ccc(-c2cc3c4nnc(CCC(=O)NCCCOC(C)C)n4ccn3n2)cc1C`, the RP-LC retention time was 759 s.

As to `Cc1csc(-c2cc(S(=O)(=O)N3CCCCC3)c(C)n2C)n1`, the RP-LC retention time was found to be 1040 s.

Compound `Cn1cnc(S(=O)(=O)NCCC2CCN(C(=O)c3ccccc3)CC2)c1` gave an RP-LC retention time of 653 s.

In the case of `CCNC(=O)c1nc(C(=O)NCc2ccccc2F)cs1`, the RP-LC retention time stood at 765 s.

As to `Cn1nccc1-c1cccc(-c2noc(/C=C/c3cccs3)n2)c1`, the RP-LC retention time turned out to be 1160 s.

Compound `Cc1cc(C)cc(NC(=O)N2CCCC(Cn3c(C4CC4)nc4cccnc43)C2)c1` (stereo not drawn) displayed an RP-LC retention time of 731 s.

Regarding `CCc1nc(-n2cccc2)sc1C(=O)Nc1ccccc1F`, the RP-LC retention time stood at 1100 s.

`CCOC(=O)c1ccc(NS(=O)(=O)c2cc(-c3c(CC)noc3NC(C)=O)ccc2C)cc1` had an RP-LC retention time of 822 s.

Turning to `O=C(c1ccc(Br)o1)N1CCN(c2nc3ccccc3nc2C(F)(F)F)CC1`, the RP-LC retention time amounted to 1140 s.

The compound `Cc1oc2ccn(Cc3ccc(F)cc3)c(=O)c2c1C(=O)NCc1ccc(F)cc1F` gave an RP-LC retention time of 1100 s.

Turning to `CC(C)N1C(=O)c2cccnc2Sc2cc(NC(=O)c3ccc(F)cc3Cl)ccc21`, the RP-LC retention time worked out at 916 s.

For `Cc1cc(N2CCN(C(=O)Nc3cccc(C)c3C)CC2)nc(N2CCOCC2)n1`, the RP-LC retention time worked out at 633 s.

In turn, `COc1ccc(CC(=O)NC2CCN(c3cc(-c4ccc(Cl)cc4)[nH]n3)C2)cc1OC` (stereo not drawn) had an RP-LC retention time of 728 s.

Compound `CCN(C(=O)CN1C(=O)CCCc2cc(S(=O)(=O)N3CCCCC3)ccc21)c1ccc(OC)cc1` registered an RP-LC retention time of 961 s.

As to `COC(=O)C1=CN(c2cc(OC)ccc2OC)c2ccc(F)cc2S1(=O)=O`, the RP-LC retention time turned out to be 874 s.

On to `CN(Cc1ccccc1)C(=O)c1cn(-c2cc(N3CCSCC3)ncn2)cn1`, for which the RP-LC retention time came out at 869 s.

As for `COc1cc(NC(=O)N2CCC(n3c(C)nc4cccnc43)CC2)cc(OC)c1OC`, the RP-LC retention time came to 569 s.

As to `Cc1ccc(NC(=O)Cn2c(=O)n(-c3ccccc3)c3ncccc32)c(C)c1`, the RP-LC retention time stood at 848 s.

`O=C(NC1CCCC1)c1nc(C(=O)N2CCN(c3ccccc3F)CC2)cs1` gave an RP-LC retention time of 940 s.

`Cc1ccc(=O)n(CCNC(=O)c2cncc(Br)c2)n1` gave an RP-LC retention time of 579 s.

As to `COc1cccc(-n2c(=O)c3sccc3n(Cc3nc(-c4ccc(Cl)c(F)c4)no3)c2=O)c1`, the RP-LC retention time came to 1060 s.

In turn, `COc1ccc(C2C(C(=O)NCc3ccccc3OC)c3cc(OC)c(OC)cc3C(=O)N2C)cc1` (stereo not drawn) yielded an RP-LC retention time of 802 s.

`COc1ccccc1NC(=O)C1CC(=O)N(c2n[nH]c3cccc(F)c23)C1` (stereo not drawn): the RP-LC retention time stood at 728 s.

In turn, `CCOc1ccccc1N1CCN(C(=O)C2CCN(c3ncnc4c3oc3ccccc34)CC2)CC1` yielded an RP-LC retention time of 814 s.

The compound `COc1ccc(C2Cn3cnc(C(=O)N4CCC(C(=O)NC5CCCCCC5)CC4)c3CO2)cc1` (stereo not drawn) had an RP-LC retention time of 797 s.

As for `Cc1ccc2c(c1)cc(S(=O)(=O)c1ccccc1)c(=O)n2CC(=O)NC1CCCC1`, the RP-LC retention time came out at 903 s.

Take `CCN1CCN(c2ncc3c(n2)CCN(Cc2ccc(Br)s2)C3)CC1`: the RP-LC retention time was found to be 568 s.

`Cc1sc(C)c(S(=O)(=O)Nc2cccc(F)c2)c1-c1cc(C(F)(F)F)on1` showed an RP-LC retention time of 1140 s.

`COc1ccccc1N1CCN(c2ccc(-c3nc(-c4ccccc4)no3)cn2)CC1` gave an RP-LC retention time of 1350 s.

Regarding `CCOc1ccc(N2C=C(C(=O)N3CCCC3)S(=O)(=O)c3ccc(Cl)cc32)cc1`, the RP-LC retention time was 930 s.

For `Cc1ccc(NS(=O)(=O)c2c(C)sc(C)c2-c2cc(C(F)(F)F)on2)cc1C`, the RP-LC retention time is 1220 s.

In the case of `CCCCC(=O)N1CCCN(C2=NS(=O)(=O)C(c3ccc(F)cc3)=C2C)CC1`, the RP-LC retention time is 825 s.

`CC(=O)c1ccc(NC(=O)C2CCCN(c3nc(C)nc4oc(C)c(C)c34)C2)cc1` (stereo not drawn) showed an RP-LC retention time of 839 s.

`COc1ccc(-c2nnc(Cc3nc(-c4ccc(OC)c(F)c4)no3)o2)cc1` had an RP-LC retention time of 1040 s.

`O=C(NCc1noc(-c2ccc(F)cc2)n1)C1CCC1` returned an RP-LC retention time of 774 s.
